Values joined by “and” are separate entries in the source; they are usually repeats but may differ in a detail not shown here. Equal entries are not always repeated.
Legend:
[1] = test system: influenza A virus A/Marton/43 (H1N1); assay type: cell-based
[2] = test system: influenza A virus; assay type: cell-based

CC(=O)N[C@H]1[C@H]([C@H](O)[C@H](O)CO)OC(C(=O)O)=C[C@@H]1NC(=N)N [Neuraminidase inhibitor, 4-guanidino-2,4-dideoxy-2,3-dehydro-N-acetylneuraminic acid]
average virus titer [1]: 4.93 × 10^5 and 2.7 × 10^5
virus localisation in treated TE cultures (staining, FIGS. 12A-F) [2]: accumulation of clumped virus

From patent publication US20090227025A1, “Ex vivo human lung/immune system model using tissue engineering for studying microbial pathogens with lung tropism” (priority 2003, published 2009)
